According to patent US20240109885A1, “2,3-DIHYDRO-1H-PYRROLO[3,2-B]PYRIDINE DERIVATIVE, PREPARATION METHOD THEREFOR, AND APPLICATION THEREOF” (Abbisko Therapeutics Co., Ltd, priority 2020, published 2024):

Key:
Assay type in all cases: cell-based
A431 (EGFR-WT) = assay: Cell proliferation assay (CellTiter-Glo), A431 cells; settings: Homo sapiens, A-431, 72 hrs, CTG assay, * = average of multiple measurements
Method: (§1) I. Cell proliferation assay (i) Reagents and consumables • Fetal bovine serum (FBS) (GBICO, Cat #10099-141); • CellTiter-Glo® Luminescent Cell Viability Assay Kit (Promega, Cat #G7572); • Black transparent flat-bottomed 96-well plate (Corning®, Cat #3603).
(§2) • SpectraMax Multi-Label Microplate Detector MD, 2104-0010A; • CO2 incubator, Thermo Scientific 3100 Series; • Biosafety cabinet, Thermo Scientific, 1300 Series type A2; • Inverted microscope, Olympus, CKX41SF; • Siemens refrigerator KK25E76TI. (iii) Cell lines and culture conditions
(§3) (iv) Experimental procedures 1. Cell culture and seeding: • (1) Cells in the logarithmic growth phase were harvested, and counted using a platelet counter. Cell viability was detected by the trypan blue exclusion assay to ensure that the cell viability was above 90%. • (2) The cell concentration was adjusted to achieve the final density; and 90 μL of the cell suspension was added to the 96-well plate. • (3) The cells were incubated in the 96-well plate overnight at 37° C. in the presence of 5% CO2 with 95% humidity. 2. TO benchmark data: • (1) 10 μL of PBS was added to each well of the TO flat plate containing the cells. • (2) The CTG reagent was thawed, and the cell plate was equilibrated to room temperature for 30 min. • (3) An equal volume of CTG solution was added to each well. • (4) The cells were shaken for 5 min on an orbital shaker for lysis. • (5) The cell plate was left at room temperature for 20 min to stabilize luminescent signals. • (6) The values of TO luminescent signals were read. 3. Compound dilution and addition • (1) According to the compound information table, a corresponding volume of DMSO was added to the corresponding compound powder to prepare a 10 mM stock solution. • (2) Compound solutions diluted at 1000 fold and 3.16 fold were prepared. • (3) The compound solution diluted at 1000 fold was diluted at 100 fold with PBS, to prepare the compound solutions at 10 fold in 9 concentrations, with the maximum concentration of […]; and the compound solution was diluted at 3.16 fold. 10 μL of medicament solution was added to each well of the seeded 96-well plate. Three replicate wells were provided for each concentration of the compound, and the final concentration of DMSO was 0.1%. • (4) Cells were placed in the 96-well plate containing the medicament and subsequently cultured for 72 hrs at 37° C. in the presence of 5% CO2 with 95% humidity, and then, CTG assay was conducted. 4. Reading of luminescent signals • (1) The CTG reagent was thawed, and the cell plate was equilibrated to room temperature for 30 min. • (2) An equal volume of CTG solution was added to each well. • (3) The cells were shaken for 5 min on an orbital shaker for lysis.
(§4) (4) The cell plate was left at room temperature for 20 min to stabilize the luminescent signals. • (5) Luminescent values were read. Data processing
(§5) The data were analyzed using software GraphPad Prism 7.0, and fitted by the nonlinear S-curve regression to obtain a dose-effect curve, based on which the IC50 value (unit: nM) was calculated, with the specific test results shown in Table 1.
(§6) Cell viability (%)=(Lum test medicament-Lum culture medium control)/(Lum cell control-Lum culture medium control)×100%.

[1] = molecular target: Ba/F3 EGFR-D770-N771ins_SVD (Homo sapiens, UniProt P00533, DUP768-770, cells depend on it); assay: Cell proliferation assay (CellTiter-Glo), Ba/F3 EGFR-D770-N771ins_SVD cells; settings: 72 hrs, CTG assay, * = average of multiple measurements, read-out: Ba/F3 EGFR-D770-N771ins_SVD (nM), IC50 of cell proliferation
Sequence of Ba/F3 EGFR-D770-N771ins_SVD (P00533 with tags, fused parts or gaps DUP768-770): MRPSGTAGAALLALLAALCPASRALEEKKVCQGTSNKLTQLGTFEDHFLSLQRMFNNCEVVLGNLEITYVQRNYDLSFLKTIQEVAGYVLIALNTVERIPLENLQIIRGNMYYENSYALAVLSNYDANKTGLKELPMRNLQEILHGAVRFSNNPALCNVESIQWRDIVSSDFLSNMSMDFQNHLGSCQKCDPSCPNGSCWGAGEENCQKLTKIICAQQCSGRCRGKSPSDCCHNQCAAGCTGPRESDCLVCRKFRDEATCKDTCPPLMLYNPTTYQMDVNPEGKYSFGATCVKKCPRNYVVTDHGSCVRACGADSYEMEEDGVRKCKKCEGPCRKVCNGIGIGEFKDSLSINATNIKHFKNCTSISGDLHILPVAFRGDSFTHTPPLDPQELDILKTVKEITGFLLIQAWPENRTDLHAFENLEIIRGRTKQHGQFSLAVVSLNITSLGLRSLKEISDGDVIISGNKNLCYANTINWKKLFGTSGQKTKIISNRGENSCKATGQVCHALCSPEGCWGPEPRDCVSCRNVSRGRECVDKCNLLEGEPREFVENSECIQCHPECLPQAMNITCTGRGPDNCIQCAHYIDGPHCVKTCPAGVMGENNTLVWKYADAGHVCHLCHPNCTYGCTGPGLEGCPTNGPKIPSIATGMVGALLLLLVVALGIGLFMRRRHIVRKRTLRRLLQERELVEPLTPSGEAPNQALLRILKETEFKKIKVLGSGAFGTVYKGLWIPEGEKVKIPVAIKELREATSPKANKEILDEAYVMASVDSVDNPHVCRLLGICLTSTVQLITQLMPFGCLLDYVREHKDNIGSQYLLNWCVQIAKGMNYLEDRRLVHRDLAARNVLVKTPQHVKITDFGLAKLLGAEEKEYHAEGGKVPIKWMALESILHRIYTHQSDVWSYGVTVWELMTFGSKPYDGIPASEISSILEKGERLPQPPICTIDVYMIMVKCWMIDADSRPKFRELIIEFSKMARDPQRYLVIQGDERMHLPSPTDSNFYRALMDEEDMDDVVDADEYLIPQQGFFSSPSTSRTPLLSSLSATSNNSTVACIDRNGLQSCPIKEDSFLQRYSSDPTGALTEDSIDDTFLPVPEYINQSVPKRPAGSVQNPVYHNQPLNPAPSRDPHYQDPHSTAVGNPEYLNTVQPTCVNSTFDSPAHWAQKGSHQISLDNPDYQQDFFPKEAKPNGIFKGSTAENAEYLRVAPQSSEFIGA
Method: as §1, §2, §3, §4, §5, §6

[2] = molecular target: Ba/F3 EGFR-V769_D770insASV (Homo sapiens, UniProt P00533, DUP767-769, cells depend on it); assay: Cell proliferation assay (CellTiter-Glo), Ba/F3 EGFR-V769_D770insASV cells; settings: 72 hrs, CTG assay, * = average of multiple measurements, read-out: Ba/F3 EGFR-V769_D770insASV (nM), IC50 of cell proliferation
Sequence of Ba/F3 EGFR-V769_D770insASV (P00533 with tags, fused parts or gaps DUP767-769): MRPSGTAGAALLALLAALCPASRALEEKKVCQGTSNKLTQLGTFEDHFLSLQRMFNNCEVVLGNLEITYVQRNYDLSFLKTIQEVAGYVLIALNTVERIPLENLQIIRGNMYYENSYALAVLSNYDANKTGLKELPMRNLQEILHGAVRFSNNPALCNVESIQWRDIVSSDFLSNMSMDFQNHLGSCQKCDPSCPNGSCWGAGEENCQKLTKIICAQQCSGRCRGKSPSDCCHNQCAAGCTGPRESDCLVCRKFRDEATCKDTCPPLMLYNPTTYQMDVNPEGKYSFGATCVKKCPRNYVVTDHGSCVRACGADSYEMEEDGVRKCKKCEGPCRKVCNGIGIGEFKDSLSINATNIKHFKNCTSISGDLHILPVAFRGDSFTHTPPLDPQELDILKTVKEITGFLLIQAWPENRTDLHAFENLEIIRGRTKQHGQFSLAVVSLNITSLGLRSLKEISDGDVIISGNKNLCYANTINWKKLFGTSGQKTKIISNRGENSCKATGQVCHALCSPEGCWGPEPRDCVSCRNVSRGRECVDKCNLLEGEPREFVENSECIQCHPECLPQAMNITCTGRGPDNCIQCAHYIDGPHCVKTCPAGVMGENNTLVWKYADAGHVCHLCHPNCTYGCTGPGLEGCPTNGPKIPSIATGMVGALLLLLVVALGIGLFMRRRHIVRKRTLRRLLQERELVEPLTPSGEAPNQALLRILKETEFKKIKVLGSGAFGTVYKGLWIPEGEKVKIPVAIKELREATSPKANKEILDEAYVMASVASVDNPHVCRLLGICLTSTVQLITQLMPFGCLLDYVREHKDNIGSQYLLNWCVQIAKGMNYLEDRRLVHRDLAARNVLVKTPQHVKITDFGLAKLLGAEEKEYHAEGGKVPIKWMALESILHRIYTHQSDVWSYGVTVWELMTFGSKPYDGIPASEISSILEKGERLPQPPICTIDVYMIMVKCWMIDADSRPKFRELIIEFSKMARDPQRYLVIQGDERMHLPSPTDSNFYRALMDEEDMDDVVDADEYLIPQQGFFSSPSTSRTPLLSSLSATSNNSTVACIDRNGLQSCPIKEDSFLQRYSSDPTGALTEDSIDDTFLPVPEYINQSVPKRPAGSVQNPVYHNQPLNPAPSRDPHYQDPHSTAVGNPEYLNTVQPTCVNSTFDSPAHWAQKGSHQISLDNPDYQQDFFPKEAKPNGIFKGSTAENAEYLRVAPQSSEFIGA
Method: as §1, §2, §3, §4, §5, §6

Structure (SMILES)	IC50 (A431 (EGFR-WT)) [nM]	GI50 [1] [nM]	GI50 [2] [nM]
C=CC(=O)Nc1cc(Nc2ncnc(N3CC(C)(C)c4nc(Cl)ccc43)n2)c(OC)cc1N(C)CCN(C)C [Example 22, N-(5-((4-(5-chloro-3,3-dimethyl-2,3-dihydro-1H-pyrrolo[3,2-b]pyridin-1-yl)-1,3,5-triazin-2-yl)amino)-2-((2-(dimethylamino)ethyl) (methyl)amino)-4-methoxyphenyl) acrylamide]	121	15.6	58.2
C=CC(=O)Nc1cc(Nc2nccc(N3CC(C)(C)c4nc(C)c(C)cc43)n2)c(OC)cc1N(C)CCN(C)C [Example 21, N-(2-((2-(dimethylamino)ethyl) (methyl)amino)-4-methoxy-5-((4-(3,3,5,6-tetramethyl-2,3-dihydro-1H-pyrrolo[3,2-b]pyridin-1-yl)pyrimidin-2-yl)amino)phenyl)acrylamide]	80.4	3.8	19
C=CC(=O)Nc1cc(Nc2cc(N3CC(C)(C)c4nc(C)ccc43)ncn2)c(OC)cc1N1CCC[C@@H]1CN(C)C [Example 13, (R)-N-(5-((6-(3,3,5-trimethyl-2,3-dihydro-1H-pyrrolo[3,2-b]pyridin-1-yl)pyrimidin-4-yl)amino)-2-(2-((dimethylamino)methyl)pyrrolidin-1-yl)-4-methoxyphenyl)acrylamide]	101	42.1	87.4
C=CC(=O)Nc1cc(Nc2nccc(N3CC(C)(C)c4nc(-c5cnn(C)c5)ccc43)n2)c(OC)cc1N(C)CCN(C)C [Example 50, N-(5-((4-(3,3-dimethyl-5-(1-methyl-1H-pyrazol-4-yl)-2,3-dihydro-1H-pyrrolo[3,2-b]pyridin-1-yl)pyrimidin-2-yl)amino)-2-((2-(dimethylamino)ethyl)(methyl)amino)-4-methoxyphenyl)acrylamide]	82.4	14.6	32.1
C=CC(=O)Nc1cc(Nc2ncnc(N3CC4(CCC4)c4nc(C)ccc43)n2)c(OC)cc1N(C)CCN(C)C [Example 61, N-(2-((2-(dimethylamino)ethyl) (methyl)amino)-4-methoxy-5-((4-(5′-methylspiro[cyclobutane-1,3′-pyrrolo[3,2-b]pyridin]-1′(2′H)-yl)-1,3,5-triazin-2-yl)amino)phenyl) acrylamide]	18.7	14.1	46.4
C=CC(=O)Nc1cc(Nc2nccc(N3CC4(CCC4)c4nc(C)ccc43)n2)c(OC(F)F)cc1N(C)CCN(C)C [Example 64, N-(4-(difluoromethoxy)-2-((2-(dimethylamino)ethyl)(methyl)amino)-5-((4-(5′-methylspiro[cyclo-butane-1,3′-pyrrolo[3,2-b]pyridin]-1′(2′H)-yl)pyrimidin-2-yl)amino)phenyl)acrylamide]	494	17.1	31.9
C=CC(=O)Nc1cc(Nc2cc(N3CC(C)(C)c4nc(C)ccc43)ccn2)c(OC)cc1N1CCC[C@@H]1CN(C)C [Example 3]	841	66.3	111
C=CC(=O)Nc1cc(Nc2cc(N3CC(C)(C)c4ncccc43)ccn2)c(OC)cc1N1CCC[C@@H]1CN(C)C [Example 4, (R)-N-(5-((4-(3,3-dimethyl-2,3-dihydro-1H-pyrrolo[3,2-b]pyridin-1-yl)pyridin-2-yl)amino)-2-(2-((dimethylamino)methyl)pyrrolidin-1-yl)-4-methoxyphenyl)acrylamide]	964	47.2	83.1
C=CC(=O)Nc1cc(Nc2nccc(N3CC4(CCCC4)c4nc(C)ccc43)n2)c(OC)cc1N(C)CCN(C)C [Example 33, N-(2-((2-(dimethylamino)ethyl) (methyl)amino)-4-methoxy-5-((4-(5′-methylspiro[cyclopentane-1,3′-pyrrolo[3,2-b]pyridin]-1′(2′H)-yl)pyrimidin-2-yl)amino)phenyl)acrylamide]	264	35.5	84.3
C=CC(=O)Nc1cc(Nc2nccc(N3CC4(CCC4)c4ncccc43)n2)c(OC(F)F)cc1N(C)CCN(C)C [Example 62, N-(4-(difluoromethoxy)-2-((2-(dimethylamino)ethyl)(methyl)amino)-5-((4-(spiro[cyclobutane-1,3′-pyrrolo[3,2-b]pyridin]-1′(2′H)-yl)pyrimidin-2-yl)amino)phenyl) acrylamide]	582	21.7	36.3
C=CC(=O)Nc1cc(Nc2nccc(N3CC4(CCCCC4)c4nc(C)ccc43)n2)c(OCC(F)(F)F)nc1N(C)CCN(C)C [Example 42, N-(2-((2-(dimethylamino)ethyl) (methyl)amino)-5-((4-(5′-methyl-spiro[cyclohexane-1,3′-pyrrolo[3,2-b]pyridin]-1′(2′H)-yl)pyrimidin-2-yl)amino)-6-(2,2,2-trifluoroethoxy)pyridin-3-yl)acrylamide]	488	11.6	23.5
C=CC(=O)Nc1cc(Nc2ncnc(N3CC(C)(C)c4nc(C)c(C)cc43)n2)c(OCC)cc1N(C)CCN(C)C [Example 30, N-(2-((2-(dimethylamino)ethyl) (methyl)amino)-4-ethoxy-5-((4-(3,3,5,6-tetramethyl-2,3-dihydro-1H-pyrrolo[3,2-b]pyridin-1-yl)-1,3,5-triazin-2-yl)amino)phenyl)acrylamide]	42.2	38.1	65.3
C=CC(=O)Nc1cc(Nc2ncnc(N3CC(C)(C)c4nc(C)ccc43)n2)c(OCC)cc1N(C)CCN(C)C [Example 25, N-(2-((2-(dimethylamino)ethyl) (methyl)amino)-4-ethoxy-5-((4-(3,3,5-trimethyl-2,3-dihydro-1H-pyrrolo[3,2-b]pyridin-1-yl)-1,3,5-triazin-2-yl)amino)phenyl)acrylamide]	–	56.5	106
C=CC(=O)Nc1cc(Nc2nccc(N3CC(C)(C)c4nc(C)ccc43)n2)c(OC(C)C)cc1N(C)CCN(C)C [Example 38, N-(2-((2-(dimethylamino)ethyl) (methyl)amino)-4-isopropoxy-5-((4-(3,3,5-trimethyl-2,3-dihydro-1H-pyrrolo[3,2-b]pyridin-1-yl)pyrimidin-2-yl)amino)phenyl)acrylamide]	–	124	266
C=CC(=O)Nc1cc(Nc2nccc(N3CC4(CCCC4)c4nc(C)ccc43)n2)c(OCC(F)(F)F)nc1N(C)CCN(C)C [Example 49, N-(2-((2-(dimethylamino)ethyl) (methyl)amino)-5-((4-(5′-methyl-spiro[cyclopentane-1,3′-pyrrolo[3,2-b]pyridin]-1′(2′H)-yl)pyrimidin-2-yl)amino)-6-(2,2,2-trifluoroethoxy)pyridin-3-yl)acrylamide]	1020	25.2	–
C=CC(=O)Nc1cc(Nc2nccc(N3CC(C)(C)c4nc(-n5cncc5C)ccc43)n2)c(OC)cc1N(C)CCN(C)C [Example 59, N-(5-((4-(3,3-dimethyl-5-(5-methyl-1H-imidazole-1-yl)-2,3-dihydro-1H-pyrrolo[3,2-b]pyridin-1-yl)pyrimidin-2-yl)amino)-2-((2-(dimethylamino)ethyl)(methyl)amino)-4-methoxyphenyl)acrylamide]	–	43.8	139
C=CC(=O)Nc1cc(Nc2nccc(N3CC4(CCCCC4)c4nc(C)ccc43)n2)c(OC(F)F)cc1N(C)CCN(C)C [Example 36, N-(4-(difluoromethoxy)-2-((2-(dimethylamino)ethyl)(methyl)amino)-5-((4-(5′-methylspiro[cyclohexane-1,3′-pyrrolo[3,2-b]pyridin]-1′(2′H)-yl)pyrimidin-2-yl)amino)phenyl)acrylamide]	–	33.2	51.5
